Legend:
adult beagle dogs = assay: Dog study, urine phosphate excretion; type: in vivo; details: 2250 mg elemental lanthanum twice daily, oral capsules, cross-over; urine approximately 24 hours after dosing
Procedure: Six adult beagle dogs were dosed orally with capsules of lanthanum oxycarbonate LaCO3OH (compound A) or La2O2CO3 (compound B) in a cross-over design using a dose of 2250 mg elemental lanthanum twice daily (6 hours apart). The doses were administered 30 minutes after provision of food to the animals. At least 14 days washout was allowed between the crossover arms. Plasma was obtained pre-dose and 1.5, 3, 6, 7.5, 9, 12, 24, 36, 48, 60, and 72 hours after dosing and analyzed for lanthanum using ICP-MS. Urine was collected by catheterization before and approximately 24 hours after dosing and creatinine and phosphorus concentrations measured.

[1] = test system: Sprague-Dawley rats with 5/6th nephrectomy; assay: In vivo study in 5/6th nephrectomy rats, urine phosphorus excretion; set-up: species or system rat; details: 314 mg elemental lanthanum/kg/day, oral lavage once daily for 14 days; compared to untreated rats
Procedure: Groups of six adult Sprague-Dawley rats underwent ⅚th nephrectomy in two stages over a period of 2 weeks and were then allowed to recover for a further two weeks prior to being randomized for treatment. The groups received vehicle (0.5% w/v carboxymethyl cellulose), or lanthanum oxycarbonate suspended in vehicle, once daily for 14 days by oral […] (10 ml/kg/day). The dose delivered 314 mg elemental lanthanum/kg/day. Dosing was carried out immediately before the dark (feeding) cycle on each day. Urine samples (24 hours) were collected prior to surgery, prior to the commencement of treatment, and twice weekly during the treatment period. Volume and phosphorus concentration were measured.
Feeding—During the acclimatization and surgery period, the animals were given Teklad phosphate sufficient diet (0.5% Ca, 0.3% P; Teklad No. TD85343), ad libitum. At the beginning of the treatment period, animals were pair fed based upon the average food consumption of the vehicle-treated animals the previous week.
⅚ Nephrectomy—After one week of acclimatization, all animals were subjected to ⅚ nephrectomy surgery. The surgery was performed in two stages. First, the two lower branches of the left renal artery were ligated. One week later, a right nephrectomy was performed. […]

[2] = physical and chemical properties of the phosphate binder; type: physicochemical
Text: The combination compositions of the present invention are benefited by the physical and chemical properties of the phosphate binders.

dogs = assay: Palatability study in dogs; type: in vivo, dog; details: during hours post meal, 9 dogs
Text: Lanthanum oxycarbonate was mixed with wet and dry dog food and presented to 9 different dogs, almost all over 40 pounds.

Row | Compound | urine phosphate excretion, a marker of phosphorous binding (adult beagle dogs) | phosphorus excretion (urine), a marker of dietary phosphorus binding [1] | stability at high temperatures [2] | solubility in aqueous media ([2]; pH above 2.0) | signs of nausea, vomiting, bloating or flatus (dogs)
1 | O=C([O-])[O-].[La+3].[OH-] [compound A, LaCO3OH] | reduction of urine phosphate excretion | – | – | – | –
2 | O=C([O-])[O-].[La+3].[La+3].[O-2].[O-2] [compound B, La2O2CO3] | reduction of urine phosphate excretion | – | – | – | –
3 | O=C([O-])[O-].[La+3].[OH-] [lanthanum carbonate hydroxide] | – | decrease in phosphorus excretion | – | – | –
4 | lanthanum oxycarbonate | – | decrease in phosphorus excretion | stable at high temperatures | sparingly soluble | None of the dogs exhibited signs of nausea, vomiting, bloating or flatus

From US20100104664A1, “TREATMENT OF CHRONIC RENAL FAILURE AND OTHER CONDITIONS IN DOMESTIC ANIMALS: COMPOSITIONS AND METHODS” (priority 2005, published 2010)
